# pEC50: −log10 of the molar value.
# Target: neurotensin receptor 1 (NTR1) (Homo sapiens (Human), UniProt P30989)
# Assay: NTR1 dose response, high-content imaging beta-arrestin-GFP assay in NTR1-U2OS cells
# Assay type: cell-based
# Details: read-out: EC50
# Text: The cell lines utilized in the high-content imaging assays, which include the NTR1-, NTR2-, and GPR35-U2OS osteosarcomas, were obtained from the laboratory of Dr. Lawrence Barak at the Duke University Medical Center. The media used in the culture of the cell lines, as well as the assays themselves, consisted of Minimum Essential Medium (15-010-CM) and L-glutamine (25-005-CL) from Cellgro/Mediatech (Manassas, Va.), fetal bovine serum (SH30396.03) from Hyclone (Logan, Utah), penicillin-streptomycin solution (PS-20) from Omega Scientific in Tarzana, Calif., G418 (ant-gn-1) from Invivogen (San Diego, Calif.), and zeocin (R250-01) from Invitrogen (Carlsbad, Calif.). Cell lines were cultured in T225 tissue culture flasks (431082) supplied by Corning (Corning, N.Y.). Additional reagents employed include Dulbecco's Phosphate-Buffered Saline (DPBS) (21-031CV) from Cellgro/Mediatech, Trypsin-EDTA 0.05% (25300) from Invitrogen, paraformaldehyde (30528954) from Acros Organics (Geel, Belgium), Hoechst 33342 (H3570) from Invitrogen. The high-content assays were run in 1536-well plates (29326) supplied by Aurora Biotechnology (Poway, Calif.) and utilized aluminum plate seals (T592100) from E&K Scientific (Santa Clara, Calif.). […]
# The high-content imaging based NTR1 primary screen in 1536-well format was utilized to assay the MLSMR library of chemical entities in the following manner. On day one, 4 uL of a cell suspension containing 350,000 NTR1-U2OS cells per mL is added to each well of a 1536-well assay plate. Cells are plated in MEM medium containing 2.5% Fetal Bovine Serum, 1% Penicillin/Streptomycin solution, 1% L-Glutamine, 400 ug/mL G418, and 200 ug/mL Zeocin. The assay plates are then incubated overnight at 37° C., under 5% CO2. Following the overnight incubation, a volume of 60 nL of the compounds at 2 mM in DMSO (final 20 μM, 1% DMSO) was transferred to columns 5-48 of the assay plates using a LabCyte Echo Liquid Handler. Next, 60 nL of DMSO were dispensed to columns 1-4, which served as the positive and neutral control wells. […] The assay plates were centrifuged on an Eppendorf 5810 centrifuge at 1000 rpm for 1 min to ensure even liquid levels in the wells of the assay plates. The assay plates were then returned to the incubator for 1 hour. Following the hour-long incubation at 37° C., the cells in each well were fixed with 4 uL of 6% paraformaldehyde added with a Multidrop Combi. The assay plates were centrifuged as before and incubated at room temperature for 1 hour. On the Kalypsys, plates were then aspirated down to 2.5 uL per well and washed twice with 11 uL per well of DPBS, followed by a final aspiration to 2.5 uL per well. On the Combi dispenser, 5 uL of 5 ug/mL Hoechst 33342 diluted in DPBS was added to each well of assay plates. The plates were again centrifuged as previously described, sealed, and incubated for at least 1 hour prior to being loaded on a PerkinElmer Opera QEHS.
# Image acquisition was performed with a 45 plate capacity loader/stacker and the following settings: 40×0.6 NA air objective, acquisition camera set to 2-by-2 binning for an image size of 688 by 512 pixels, beta-arrestin-GFP acquired using 488 nm laser excitation and 540/75 nm emission filters, DAPI (nuclei) using 365 nm Xenon lamp excitation and 450/50 nm emission filters, 3 fields per well. Image analysis was performed using the Acapella Spot Detection Algorithm. For analysis settings and the metrics employed in the data analyses, please refer to supplemental information.
# Compounds that were successfully confirmed in quadruplicate at 20 uM were then run in dose response in the primary assay. As with the single concentration hit confirmation, the assay was performed in an identical manner as the primary screen with the following modifications. […]
# Sequence of neurotensin receptor 1 (NTR1) (P30989 whole entry, species assumed): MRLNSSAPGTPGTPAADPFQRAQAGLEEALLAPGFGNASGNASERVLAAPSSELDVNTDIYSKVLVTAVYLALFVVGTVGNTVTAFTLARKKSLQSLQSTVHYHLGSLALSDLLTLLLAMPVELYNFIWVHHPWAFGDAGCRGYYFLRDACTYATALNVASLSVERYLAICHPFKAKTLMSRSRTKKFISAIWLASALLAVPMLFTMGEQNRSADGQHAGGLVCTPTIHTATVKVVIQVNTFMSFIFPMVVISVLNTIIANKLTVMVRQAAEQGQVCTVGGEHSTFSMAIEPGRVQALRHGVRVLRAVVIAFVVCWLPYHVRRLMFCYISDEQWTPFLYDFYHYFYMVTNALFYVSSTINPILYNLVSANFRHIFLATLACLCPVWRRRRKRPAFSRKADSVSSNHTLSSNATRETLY
row,SMILES,pEC50
1,"CN(C)c1ccccc1C1CCN(c2nc(C3(C(F)(F)F)CC3)nc3ccc(N(C)CCO)cc23)CC1 [Example 49, 2-{[4-[4-(2-dimethylamino-phenyl)-piperidin-1-yl]-2-(1-trifluoromethyl-cyclopropyl)-quinazolin-6-yl]-methyl-amino}-ethanol]",5.70 to 6.30
2,"CN(CCO)c1ccc2nc(C3(F)CC3)nc(N3CCC(c4ccccc4OCCF)CC3)c2c1 [Example 225, 2-[(2-(1-Fluoro-cyclopropyl)-4-{4-[2-(2-fluoro-ethoxy)-phenyl]-piperidin-1-yl}-quinazolin-6-yl)-methyl-amino]-ethanol]",5.70 to 6.30
3,"COCCN(C)c1ccc2nc(C3CC3)nc(N3CCC(c4ccccc4N4CCC4)CC3)c2c1 [Example 7, {4-[4-(2-azetidin-1-yl-phenyl)-piperidin-1-yl]-2-cyclopropyl-quinazolin-6-yl}-(2-methoxy-ethyl)-methyl-amine]",5.00 to 5.70
4,"CN(C)c1ccccc1C1CCN(c2nc(C3CC3)nc3ccc(N(C)CCO)cc23)CC1 [Example 10, 2-({2-cyclopropyl-4-[4-(2-dimethylamino-phenyl)-piperidin-1-yl]-quinazolin-6-yl}-methyl-amino)-ethanol]",5.00 to 5.70
5,"CN(CCO[Si](C)(C)C(C)(C)C)c1ccc2nc(C3(F)CC3)nc(N3CCC(c4ccccc4O)CC3)c2c1 [Example 224, 2-{1-[6-{[2-(tert-Butyl-dimethyl-silanyloxy)-ethyl]-methyl-amino}-2-(1-fluoro-cyclopropyl)-quinazolin-4-yl]-piperidin-4-yl}-phenol]",5.00 to 5.70
6,"COc1ccccc1C1CCN(c2nc(C3CC3)nc3ccc(N4CC[C@@H](N(C)C)C4)cc23)CC1 (stereo in doubt) [Example 91, (1-{2-cyclopropyl-4-[4-(2-methoxy-phenyl)-piperidin-1-yl]-quinazolin-6-yl}-pyrrolidin-3-yl)-dimethyl-amine]",5.00 to 5.70
7,"CCCN(C)c1ccc2nc(N(C)C)nc(N3CCC(c4ccccc4OC)CC3)c2c1 [Example 95, 4-(4-(2-methoxyphenyl)piperidin-1-yl)-N2,N2,N6-trimethyl-N6-propylquinazoline-2,6-diamine]",< 5.00
8,"COc1nccnc1C1CCN(c2nc(C3(O)CCC3)nc3ccc(N(C)CCO)cc23)CC1 [Example 221, 1-(6-((2-hydroxyethyl)(methyl)amino)-4-(4-(3-methoxypyrazin-2-yl)piperidin-1-yl)quinazolin-2-yl)cyclobutanol]",< 5.00
9,"COc1ccc(F)cc1C1CCN(c2nc(C3CC3)nc3cc(C)c(N(C)CCO)cc23)CC1 [Example 115, 2-({2-cyclopropyl-4-[4-(5-fluoro-2-methoxy-phenyl)-piperidin-1-yl]-7-methyl-quinazolin-6-yl}-methyl-amino)-ethanol]",5.00 to 5.70
10,"CN(C)c1ccccc1C1CCN(c2nc(C3CC3)nc3ccc(N(C)CCN4CCCC4)cc23)CC1 [Example 13, {2-cyclopropyl-4-[4-(2-dimethylamino-phenyl)-piperidin-1-yl]-quinazolin-6-yl}-methyl-(2-pyrrolidin-1-yl-ethyl)-amine]",5.00 to 5.70
11,"COc1ccccc1C1CCN(c2nc(C3CC3)nc3ccc(N(C)CCO)c(F)c23)CC1 [Example 132, 2-((2-cyclopropyl-5-fluoro-4-(4-(2-methoxyphenyl)piperidin-1-yl)quinazolin-6-yl)(methyl)amino)ethanol]",5.70 to 6.30
12,CN(C)c1ccc2nc(C3CC3)nc(N3CCC(c4ccccc4N4CCC4)CC3)c2c1 [Example 3],< 5.00
13,"COc1cccnc1N1CCN(c2nc(C3(F)CC3)nc3ccc(N(C)CCO)cc23)CC1 [Example 209, 2-({2-(1-Fluoro-cyclopropyl)-4-[4-(3-methoxy-pyridin-2-yl)-piperazin-1-yl]-quinazolin-6-yl}-methyl-amino)-ethanol]",5.00 to 5.70
14,"COc1cnccc1C1CCN(c2nc(C3(F)CC3)nc3ccc(N(C)CCO)cc23)CC1 [Example 212, 2-{[2-(1-Fluoro-cyclopropyl)-4-(3′-methoxy-3,4,5,6-tetrahydro-2H-[4,4′]bipyridinyl-1-yl)-quinazolin-6-yl]-methyl-amino}-ethanol]",< 5.00
15,"COc1ccccc1C1CCN(c2nc(C3CC3)nc3ccc(N(C)CCO)c(Cl)c23)CC1 [Example 103, 2-({5-chloro-2-cyclopropyl-4-[4-(2-methoxy-phenyl)-piperidin-1-yl]-quinazolin-6-yl}-methyl-amino)-ethanol]",> 6.30
16,"COc1ccccc1C1CCN(c2nc(C3CCCC3)nc3ccc(N(C)C)cc23)CC1 [Example 37, {2-cyclopentyl-4-[4-(2-methoxy-phenyl)-piperidin-1-yl]-quinazolin-6-yl}-dimethyl-amine]",< 5.00
17,"COc1ccccc1C1CCN(c2nc(C3(C)CCCC3)nc3ccc(N(C)CCO)cc23)CC1 [Example 51, 2-{[4-[4-(2-methoxy-phenyl)-piperidin-1-yl]-2-(1-methyl-cyclopentyl)-quinazolin-6-yl]-methyl-amino}-ethanol]",5.00 to 5.70
18,"COc1ccccc1C1CCN(c2nc(C3CC3)nc3ccc(N4CCC(N(C)C)CC4)cc23)CC1 [Example 78, (1-{2-cyclopropyl-4-[4-(2-methoxy-phenyl)-piperidin-1-yl]-quinazolin-6-yl}-piperidin-4-yl)-dimethyl-amine]",< 5.00
19,"COc1ccccc1C1CCN(c2nc(C3(C)CC3)nc3ccc(N(C)CCO)cc23)CC1 [Example 22, 2-{[4-[4-(2-methoxy-phenyl)-piperidin-1-yl]-2-(1-methyl-cyclopropyl)-quinazolin-6-yl]-methyl-amino}-ethanol]",> 6.30
20,"CCCN(C)c1cc2c(N3CCC(c4ccccc4OC)CC3)nc(C3CC3)nc2cc1Cl [Example 104, {7-chloro-2-cyclopropyl-4-[4-(2-methoxy-phenyl)-piperidin-1-yl]-quinazolin-6-yl}-methyl-propyl-amine]",< 5.00
21,"COCCN(C)c1ccc2nc(C3(F)CC3)nc(N3CCC(c4ccccc4OC)CC3)c2c1 [Example 16, {2-(1-fluoro-cyclopropyl)-4-[4-(2-methoxy-phenyl)-piperidin-1-yl]-quinazolin-6-yl}-(2-methoxy-ethyl)-methyl-amine]",5.70 to 6.30
22,"CCCN(C)c1cccc2nc(C3CC3)nc(N3CCC(c4ccccc4OC)CC3)c12 [Example 131, {2-cyclopropyl-4-[4-(2-methoxy-phenyl)-piperidin-1-yl]-quinazolin-5-yl}-methyl-propyl-amine]",5.00 to 5.70
23,"CCOC(=O)CN(C)c1ccc2nc(C3CC3)nc(N3CCC(c4ccccc4OC)CC3)c2c1 [Example 90, ({2-cyclopropyl-4-[4-(2-methoxy-phenyl)-piperidin-1-yl]-quinazolin-6-yl}-methyl-amino)-acetic acid ethyl ester]",< 5.00
24,"COc1ccccc1C1CCN(c2nc(C3CC3)nc3ccc(N4CC[C@@H](OC)C4)cc23)CC1 [Example 176, (R)-2-cyclopropyl-4-[4-(2-methoxy-phenyl)-piperidin-1-yl]-6-(3-methoxy-pyrrolidin-1-yl)-quinazoline]",5.70 to 6.30
25,"COc1ccccc1C1CCN(c2nc(C#CC3CC3)nc3ccc(N(C)CCO)cc23)CC1 [Example 191, 2-({2-Cyclopropylethynyl-4-[4-(2-methoxy-phenyl)-piperidin-1-yl]-quinazolin-6-yl}-methyl-amino)-ethanol]",5.00 to 5.70
26,"CN(C)c1ccccc1C1CCN(c2nc(C3(C(F)(F)F)CCCC3)nc3ccc(N(C)CCN4CCOCC4)cc23)CC1 [Example 58, [4-[4-(2-dimethylamino-phenyl)-piperidin-1-yl]-2-(1-trifluoromethyl-cyclopentyl)-quinazolin-6-yl]-methyl-(2-morpholin-4-yl-ethyl)-amine]",5.00 to 5.70

# From patent publication US10118902B2 (Sanford Burnham Prebys Medical Discovery Institute, priority 2014, dated 2018)
